Literature values as cited in the CATMoS acute toxicity set (Mansouri et al. 2021).
Where “and” joins values, the source holds several entries; their conditions need not be identical. Identical values can stand only once.

Assay: rat acute oral toxicity
Conditions: in vivo

First: CCc1ccc([N+]([O-])=Cc2ccccc2)cc1
Second: COc1ccc(C=Nc2c(C)n(C)n(-c3ccccc3)c2=O)cc1
The LD50 of the first is 7.5-fold lower: 1340 mg/kg for the first, 10000 mg/kg for the second.

`CCC1C(c2ccccc2)=CCC(C(=O)O)C1C` (centres undefined) and `CC(C)C(=O)OCc1ccccc1` are within 1.5-fold of each other in LD50: 2350 mg/kg for the first, 2850 mg/kg for the second.

Compared with `CNCCON=C1c2ccccc2CCc2ccccc21`, `CN(C)CC/C=C1\c2ccccc2CSc2ccccc21` is 1.9-fold lower in LD50: 860 mg/kg for the first, 450 mg/kg for the second.

Going from `CC(C)c1cccc(C(C)C)c1N=C=O` to `CSCC(=O)N(C)C(=O)Oc1ccccc1OC(C)C`, the LD50 falls from 1410 mg/kg to 650 mg/kg (2.2-fold).

`CC1CC2CN(C)CC(C2O)C1N1CCCC1` (centres undefined) and `CN1CCC23CCCCC2C1Cc1ccc(O)cc13` (centres undefined) are within 1.5-fold of each other in LD50: 500 mg/kg for the first, 350 mg/kg for the second.

First: COc1ccc2c(c1)OC(C)(C)C(c1ccccc1)C2c1ccc(OCC2CO2)cc1 (centres undefined)
Second: O=C1c2ccccc2C(=O)C1c1ccc(C(F)(F)F)cc1
The LD50 of the first is 4-fold higher: 800 mg/kg for the first, 198 mg/kg for the second.

Compared with `BrCBr`, `NCCN(CCN)CCN` is 2.3-fold higher in LD50: 108 mg/kg for the first, 246 mg/kg for the second.

Compared with `CCCSP(=O)(OC)OC`, `CCCC(=O)NP(=O)(OC)SC` (centres undefined) is 13-fold higher in LD50: 9.4 mg/kg for the first, 125 mg/kg for the second.

First: CCCCOc1ccccc1NC(C)=O
Second: COc1ccccc1OCC(O)COC(N)=O (centres undefined)
The LD50 of the first is 2.2-fold higher: 2900 mg/kg for the first, 1320 mg/kg for the second.

Compared with `CCOP(=S)(OCC)OC(C)C`, `CCOP(=S)(OCC)Oc1cnn(C)c(=O)c1OC` is 400-fold lower in LD50: 1000 mg/kg for the first, 2.5 mg/kg for the second.

Going from `COc1cc(C(=O)N2CCN(C(=O)c3cc(OC)c(OC)c(OC)c3)CC2)cc(OC)c1OC` to `COc1c2occc2c(OC)c2c(=O)cc(C)oc12`, the LD50 falls from 1000 mg/kg to 68.8 mg/kg (15-fold).

Compared with `CC(C(=O)O)c1ccc2c(c1)C(=O)Cc1ccccc1O2` (centres undefined), `CC(Cc1ccccc1)NCC1COc2ccccc2C1=O` (centres undefined) is 4.7-fold higher in LD50: 106 mg/kg for the first, 500 mg/kg for the second.

Compared with `CCCOc1c(Cl)c(Cl)c(Cl)c(Cl)c1Cl`, `Clc1cc(Cl)c(-c2c(Cl)c(Cl)c(-c3c(Cl)cc(Cl)c(Cl)c3Cl)c(Cl)c2Cl)cc1Cl` is 37-fold higher in LD50: 430 mg/kg for the first, 16000 mg/kg for the second.

Going from `CC(=O)c1cccc(N=Nc2ccc(N(C)C)cc2)c1` to `COc1ccc(NC(=O)N(C)C)cc1Cl`, the LD50 falls from 4820 mg/kg to 1600 mg/kg (3-fold).

First: O=CNC(Nc1ccc(Cl)c(Cl)c1)C(Cl)(Cl)Cl (centres undefined)
Second: O=C(COc1ccc(Cl)cc1Cl)OCC=CCCl
The LD50 of the first is 4.6-fold higher: 2500 mg/kg for the first, 547 mg/kg for the second.

Going from `CNN` to `CC(CN)NCCO` (centres undefined), the LD50 rises from 58 mg/kg to 4920 mg/kg (85-fold).

Compared with `CCCCC(CC)COC(C[n+]1ccccc1)c1ccccc1` (centres undefined), `CN(CCCO)CCC(c1ccccc1)c1ccccc1` is 5.6-fold higher in LD50: 250 mg/kg for the first, 1400 mg/kg for the second.

Compared with `CCCCCCCCCCCCCCCC(=O)OC/C=C(C)/C=C/C=C(C)/C=C/C1=C(C)CCCC1(C)C`, `CCCCCCCCCCCCCCCCCC[N+](C)(C)CC(O)CCl` (centres undefined) is 3.1-fold lower in LD50: 7910 mg/kg for the first, 2590 mg/kg for the second.

First: CN=C(O)O/N=C1/COCS1
Second: CN=C(O)O/N=C1/SCOC1C (centres undefined)
The LD50 of the first is 4.1-fold higher: 49 mg/kg for the first, 12 mg/kg for the second.

Going from `CCCNC(=O)C(C)Nc1ccc(OCC)cc1` (centres undefined) to `O=C(CF)Nc1ccc(Br)cc1`, the LD50 falls from 3000 mg/kg to 29 mg/kg (100-fold).

Compared with `ClC1=C(Cl)[C@]2(Cl)[C@@H]3[C@@H](Cl)[C@H](Cl)[C@@H](Cl)[C@@H]3[C@@]1(Cl)C2(Cl)Cl` (racemic), `CNC(=O)ON=C1[C@@H](Cl)[C@@H]2C[C@H](C#N)[C@H]1C2` (relative stereo) is 20-fold lower in LD50: 500 mg/kg for the first, 25 mg/kg for the second.

Going from `CN(CCO)c1nc(Nc2ccccc2)nc(Nc2ccc(/C=C/c3ccc(Nc4nc(Nc5ccccc5)nc(N(C)CCO)n4)cc3S(=O)(=O)O)c(S(=O)(=O)O)c2)n1` to `O=S(=O)(O)c1cc(Cl)ccc1C=Cc1ccc(-n2nc3ccc4c(S(=O)(=O)O)cccc4c3n2)cc1S(=O)(=O)O`, the LD50 rises from 6890 mg/kg to 19900 mg/kg (2.9-fold).

Compared with `C=CCn1c(N)cc(=O)n(CC)c1=O`, `CCC[C@]1(c2cccc(O)c2)CCN(C)C[C@@H]1C` is 2.6-fold lower in LD50: 2300 mg/kg for the first, 887 mg/kg for the second.

`COc1ccccc1C1C(Cl)C(=O)N1c1ccccc1C(=O)O` (centres undefined) and `O=C(O)c1ccccc1Nc1cccc(Cl)c1CO` are the same in LD50: 2400 mg/kg for the first, 2400 mg/kg for the second.

Compared with `CN(SSC(C)(C)C)C(=O)ON=C1SCCS1`, `CN(SC(Cl)(Cl)Cl)C(=O)ON=C1SC(=C(C#N)C#N)SC1(C)C` is 96-fold higher in LD50: 5.6 mg/kg for the first, 538 mg/kg for the second.

Compared with `COc1cc([C@@H]2c3cc4c(cc3C(O[C@@H]3O[C@@H]5CO[C@@H](C)O[C@H]5[C@H](O)[C@H]3O)C3COC(=O)[C@@H]32)OCO4)cc(OC)c1O` (some centres undefined), `COc1ccc2c3c1OC1C(O)CCC4C(C2)N(C)CCC341` (centres undefined) is 5-fold lower in LD50: 1780 mg/kg for the first, 359 mg/kg for the second.

First: CCOP(=S)(OCC)OC(=CCl)c1ccc(Cl)cc1Cl
Second: CC(=O)CC(=O)Nc1ccc(Cl)cc1C
The LD50 of the first is 350-fold lower: 10 mg/kg for the first, 3500 mg/kg for the second.

First: S=C1NCCNC(=S)S1
Second: c1ccc2c(c1)CCCC2C1=NCCN1 (centres undefined)
The LD50 of the first is 3.3-fold lower: 240 mg/kg for the first, 785 mg/kg for the second.

First: CC(=O)NC(=O)c1ccccc1O
Second: Nc1ccccc1C(=O)O
The LD50 of the first is 3-fold lower: 1800 mg/kg for the first, 5410 mg/kg for the second.

Going from `FC(F)(F)c1nc2cc(Br)c(Cl)cc2[nH]1` to `Fc1cc(Br)c2nc(C(F)(F)F)[nH]c2c1`, the LD50 falls from 9.04 mg/kg to 5.65 mg/kg (1.6-fold).

Compared with `CCN(CC)c1ccccc1`, `NC(=S)Nc1ccccc1` is 260-fold lower in LD50: 782 mg/kg for the first, 3 mg/kg for the second.

First: C1=CCC(C2OCC3(CC=CCC3)CO2)CC1 (centres undefined)
Second: CN1CCC(N(Cc2cccs2)c2ccccc2)CC1
The LD50 of the first is 4.9-fold higher: 5190 mg/kg for the first, 1060 mg/kg for the second.

First: O=C(C(F)(F)Cl)C(F)(Cl)Cl
Second: COc1nccc(C(F)(F)F)c1S(=O)(=O)Cl
The LD50 of the first is 11-fold lower: 277 mg/kg for the first, 3130 mg/kg for the second.

Going from `CCOc1ccc(N2CC(C(=O)N3CCNCC3)CC2=O)cc1` (centres undefined) to `CN1CCCCC1C(c1ccccc1)c1cccc(O)c1` (centres undefined), the LD50 falls from 550 mg/kg to 1 mg/kg (550-fold).

First: NC(N)=NC(N)=NCc1ccccc1
Second: O=NN(c1ccccc1)c1ccccc1
The LD50 of the first is 3.8-fold lower: 481 mg/kg for the first, 1820 mg/kg for the second.

Going from `N#Cc1ccc(F)cc1C#N` to `Nc1ccc(O)c(C(=O)O)c1`, the LD50 rises from 14 mg/kg to 2800 mg/kg (200-fold).

`CC(=O)N(C)C(=O)Oc1cccc(C(C)(C)C)c1` and `CC(C=O)Cc1ccc(C(C)(C)C)cc1` (centres undefined) are within 1.5-fold of each other in LD50: 1000 mg/kg for the first, 1390 mg/kg for the second.

First: CC(C)OP(=S)(CCl)Sc1ccc(Br)cc1 (centres undefined)
Second: CCN(CC)CCOCc1cc(Br)ccc1OC
The LD50 of the first is 9.6-fold lower: 23 mg/kg for the first, 220 mg/kg for the second.

First: C=C(C)C(=O)OCCSCCCC
Second: CCCCCC(C)=O
The LD50 of the first is 3.2-fold higher: 5300 mg/kg for the first, 1670 mg/kg for the second.

Compared with `C(=CNc1ccccc1)C=Nc1ccccc1`, `OC1(c2cccc(Cl)c2)c2ccccc2C2=NCCN21` (centres undefined) is 5.7-fold lower in LD50: 1130 mg/kg for the first, 200 mg/kg for the second.

Compared with `N#CC(Cl)(Cl)C#N`, `O=C(O)CCC(=O)OCC1COC(C(Cl)(Cl)Cl)O1` (centres undefined) is 26-fold higher in LD50: 130 mg/kg for the first, 3400 mg/kg for the second.

`CCN1CCCc2ccccc21` and `CCN1CCOCC1` are the same in LD50: 1780 mg/kg for the first, 1780 mg/kg for the second.

Compared with `O=C(OC1CC2NC(C1)C1OC21)C(CO)c1ccccc1` (centres undefined), `CC(=O)c1cc2cccc(OCC(O)CNC(C)C)c2o1` (centres undefined) is 3.3-fold lower in LD50: 3020 mg/kg for the first, 922 mg/kg for the second.

`NC(=O)N/N=C/c1ccc([N+](=O)[O-])o1` and `CCc1cccc2cc(C(O)CNC(C)(C)C)oc12` (centres undefined) are within 1.5-fold of each other in LD50: 590 mg/kg for the first, 750 mg/kg for the second.

Compared with `Nc1ccc(C(F)(F)F)c(NC(=O)c2cccnc2)c1`, `C[C@@H](NCCc1ccc(O)cc1)[C@@H](O)c1ccc(O)cc1` (racemic) is 2.3-fold higher in LD50: 800 mg/kg for the first, 1840 mg/kg for the second.

Going from `CCOP(=O)(OC=C(Cl)Cl)OCCCl` (centres undefined) to `CCOP(=O)(OCC)N(SN(C)C(=O)ON=C(C)SC)C(C)C`, the LD50 rises from 5 mg/kg to 100 mg/kg (20-fold).

Going from `CS(=O)(=O)OCCCNCCCOS(C)(=O)=O` to `CCOCCOCC`, the LD50 rises from 108 mg/kg to 4390 mg/kg (41-fold).

Compared with `CC(C)COC(=O)C(C)C`, `C=CC(=O)NC(OC)C(=O)OC` (centres undefined) is 6.1-fold lower in LD50: 12800 mg/kg for the first, 2090 mg/kg for the second.

First: Cc1cccc(OCC(O)CNC(C)(C)C)c1C (centres undefined)
Second: CCCCCOc1ccc(Br)cc1COCCN(CC)CC
The LD50 of the first is 1.8-fold higher: 575 mg/kg for the first, 320 mg/kg for the second.

Going from `CCCCOC(=O)c1ccccc1C(=O)OCCOCCOC(=O)c1ccccc1C(=O)OCCCC` to `CCCCCCCCCCCCCOCCOCCOCCOCCOCCOCCO`, the LD50 falls from 11000 mg/kg to 1400 mg/kg (7.9-fold).

In the case of `Nc1ccc(N)cc1`, the LD50 is listed as 80 mg/kg and 147 mg/kg.
In the case of `O=C(O)C(Cl)Cl`, the LD50 is given as 5280 mg/kg and 2820 mg/kg.
In the case of `CC[N+]1(C)CCCC(OC(=O)C(O)(c2ccccc2)c2ccccc2)C1` (centres undefined), the LD50 is listed as 916 mg/kg and 850 mg/kg.
In the case of `CC(C)(N)Cc1ccc(Cl)cc1`, the LD50 is listed as 150 mg/kg and 250 mg/kg.
